Measured values reported in patent US20250049679A1, “FORMULATIONS OF ERIODICTYOL” (DEBUT BIOTECHNOLOGY, INC., priority 2023, published 2025).
Entries after “also recorded” stand apart in the source; their conditions may differ.

Tests used:
[1] = target: T1, human neutrophil elastase (Homo sapiens, UniProt P08246); assay: Elastase enzyme inhibition; format: biochemical
T1 sequence (P08246 30-267): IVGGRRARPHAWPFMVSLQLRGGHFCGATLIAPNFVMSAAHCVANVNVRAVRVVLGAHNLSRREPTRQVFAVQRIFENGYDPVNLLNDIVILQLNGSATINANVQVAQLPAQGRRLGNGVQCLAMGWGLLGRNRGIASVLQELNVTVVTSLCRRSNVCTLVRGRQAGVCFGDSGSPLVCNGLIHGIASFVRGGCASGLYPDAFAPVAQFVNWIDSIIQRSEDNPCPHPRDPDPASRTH
Description: The assay was conducted to evaluate the elastase enzyme inhibition activity of compositions comprising eriodictyol. Neutrophil infiltration and neutrophil elastase are both increased in the skin in response to UV stress. […] Therefore, inhibition of this enzyme, particularly in combination with antioxidant activity, is effective in delaying wrinkle development and aiding in maintaining skin integrity. This assay is measures release of 4-nitroaniline from an Me-Suc-[…] by human neutrophil elastase and can be quantified at 405 nm by comparing to solvent control.

TRPV1 receptors = TRPV1 receptors (Homo sapiens, UniProt Q8NER1); details: acting on TRPV1 receptors; Deng et al. 2020; cited from earlier work
[2] = tested on: TFPI2 (tissue factor pathway inhibitor 2); assay: Gene modulation; format: cell-based
Source text: (§1) Table 9, provided below, incorporates the gene modulation data for formulations comprising eriodictyol.

[3] = tested on: ALDH1A3 (aldehyde dehydrogenase 1 family member A3); assay: Gene modulation; format: cell-based
Source text: as §1

[4] = tested on: PPFIA4 (PTPRF interacting protein alpha 4); assay: Gene modulation; format: cell-based
Source text: as §1

[5] = tested on: KCTD4 (potassium channel tetramerization domain containing 4); assay: Gene modulation; format: cell-based
Source text: as §1

IL6 (Interleukin 6) = assay: Gene modulation; format: cell-based
Source text: as §1

THBS1 (thrombospondin 1) = assay: Gene modulation; format: cell-based
Source text: as §1

FST (follistatin) = assay: Gene modulation; format: cell-based
Source text: as §1

[6] = tested on: SLC13A5 (Solute carrier family 13 member 5); assay: Gene modulation; format: cell-based
Source text: as §1

IL24 (Interleukin 24) = assay: Gene modulation; format: cell-based
Source text: as §1

[7] = tested on: MMP3 (Matrix Metallopeptidase 3); assay: Gene modulation; format: cell-based
Source text: as §1

FN1 (fibronectin 1) = assay: Gene modulation; format: cell-based
Source text: as §1

[8] = tested on: ATP12A (ATPase H+/K+ transporting non-gastric alpha2 subunit); assay: Gene modulation; format: cell-based
Source text: as §1

[9] = tested on: MMP10 (matrix metallopeptidase 10); assay: Gene modulation; format: cell-based
Source text: as §1

[10] = tested on: MKI67 (marker of proliferation Ki-67); assay: Gene modulation; format: cell-based
Source text: as §1

[11] = tested on: MMP9 (Matrix Metallopeptidase 9); assay: Gene modulation; format: cell-based
Source text: as §1

[12] = tested on: MMP1 (matrix metallopeptidase 1); assay: Gene modulation; format: cell-based
Source text: as §1

[13] = tested on: TNF (Tumor Necrosis Factor); assay: Gene modulation; format: cell-based
Source text: as §1

IL23A (Interleukin 23) = assay: Gene modulation; format: cell-based
Source text: as §1

[14] = tested on: TOP2A (DNA topoisomerase II alpha); assay: Gene modulation; format: cell-based
Source text: as §1

ICR mice = details: mouse skin; Park et al. 2013; cited from earlier work
[15] = Glycation inhibition assay; format: biochemical; details: for % Enzyme Inhibition: glycation
Description: The assay was conducted to evaluate the glycation inhibition activity of compositions comprising eriodictyol. Nonenzymatic glycation can occur when glucose reacts with proteins, forming a Schiff base intermediate that subsequently undergoes Amadori rearrangement to form glycosylated proteins, when they react with skin proteins to form Advanced Glycation End products (AGE). AGE formation can result in loss of skin elasticity and impaired cellular function. The glycation inhibition ability of a compound is measured by change in fluorescence at excitation/emission of 360 nm/420 nm relative to solvent control.

macrophage cells = details: cited from earlier work
[16] = DPPH antioxidant activity assay (organic medium); format: biochemical; details: for % Radical Inhibition: DPPH
Source text: The 2,2-diphenyl-1-picrylhydrazyl (DPPH) antioxidant assay is designed to evaluate the antioxidant activity of compositions comprising eriodictyol in an organic medium. […] In the presence of an antioxidant DPPH is reduced, resulting in the formation of a colorless solution. Reduction of absorbance at 517 nm is standardized to solvent control as an indication of DPPH scavenging.

[17] = Solubility of eriodictyol in solvents; format: physicochemical
Keratinocytes = details: skin; cited from earlier work
melanoma cells = details: cited from earlier work
tyrosinase = tyrosinase (Mus musculus, UniProt P11344); details: cited from earlier work
Nrf2/HO-1 pathway = details: mice, acting on the Nrf2/HO-1 pathway; Li et al. 2022; cited from earlier work
[18] = ABTS antioxidant assay (aqueous medium); format: biochemical; details: for % Radical Inhibition: ABTS
Source text: ABTS+ solution is generated as a free radical and used to measure relative ability of a compound to scavenge free radicals. Reduction of the absorbance at 734 nm was standardized to solvent control as an indication of ABTS+ scavenging.

[19] = Stability of eriodictyol in dimethyl isosorbide; format: physicochemical
Source text: Thus, the compositions of the invention will also be stable for storage for at least 2 years under ambient conditions.

Chain of tyrosinase (P11344 19-533): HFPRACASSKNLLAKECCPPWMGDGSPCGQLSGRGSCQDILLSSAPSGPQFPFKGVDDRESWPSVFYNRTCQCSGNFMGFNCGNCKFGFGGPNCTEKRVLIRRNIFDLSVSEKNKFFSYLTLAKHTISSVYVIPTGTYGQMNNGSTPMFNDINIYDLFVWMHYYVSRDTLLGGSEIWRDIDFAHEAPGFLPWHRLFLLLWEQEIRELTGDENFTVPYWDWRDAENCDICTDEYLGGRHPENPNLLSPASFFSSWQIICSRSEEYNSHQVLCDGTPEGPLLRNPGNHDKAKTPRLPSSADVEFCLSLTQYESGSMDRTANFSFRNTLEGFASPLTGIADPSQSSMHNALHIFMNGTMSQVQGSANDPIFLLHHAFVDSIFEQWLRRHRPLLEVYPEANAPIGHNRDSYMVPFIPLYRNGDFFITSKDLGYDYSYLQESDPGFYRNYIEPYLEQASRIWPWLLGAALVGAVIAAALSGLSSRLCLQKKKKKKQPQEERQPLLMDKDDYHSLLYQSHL
Chain of TRPV1 receptors (Q8NER1 whole entry): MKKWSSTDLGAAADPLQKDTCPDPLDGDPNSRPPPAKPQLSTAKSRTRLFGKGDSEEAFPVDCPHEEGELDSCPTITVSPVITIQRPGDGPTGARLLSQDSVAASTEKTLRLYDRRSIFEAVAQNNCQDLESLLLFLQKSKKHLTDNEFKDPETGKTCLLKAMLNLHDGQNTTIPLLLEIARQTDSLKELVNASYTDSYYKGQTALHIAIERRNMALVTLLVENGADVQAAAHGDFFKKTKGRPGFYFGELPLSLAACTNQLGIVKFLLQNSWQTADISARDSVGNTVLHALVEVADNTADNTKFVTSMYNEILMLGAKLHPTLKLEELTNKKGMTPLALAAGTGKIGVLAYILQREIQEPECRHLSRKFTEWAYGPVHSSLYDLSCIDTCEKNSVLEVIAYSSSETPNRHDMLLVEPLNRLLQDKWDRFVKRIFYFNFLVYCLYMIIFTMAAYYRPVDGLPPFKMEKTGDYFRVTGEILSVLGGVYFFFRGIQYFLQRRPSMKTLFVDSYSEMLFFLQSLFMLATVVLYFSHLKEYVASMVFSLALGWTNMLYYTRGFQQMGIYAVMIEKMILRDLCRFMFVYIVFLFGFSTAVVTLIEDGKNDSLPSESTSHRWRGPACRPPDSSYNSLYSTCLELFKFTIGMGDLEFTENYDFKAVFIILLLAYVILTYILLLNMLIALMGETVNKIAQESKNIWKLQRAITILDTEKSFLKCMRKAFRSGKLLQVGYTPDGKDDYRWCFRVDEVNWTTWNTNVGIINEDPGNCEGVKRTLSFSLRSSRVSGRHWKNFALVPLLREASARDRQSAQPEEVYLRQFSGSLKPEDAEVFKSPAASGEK

## O=C1C[C@@H](c2ccc(O)c(O)c2)Oc2cc(O)cc(O)c21 [eriodictyol]
[1]
  Lowest concentration inhibiting elastase enzyme activity: 0.008 % w/w
[1]; calculated
  IC50 elastase enzyme inhibition: 0.107 % w/w
[1]; elastase, eriodictyol 0.008 % w/w
  inhibition at 0.008 % strength: 17.6%
[1]; elastase, eriodictyol 0.04 % w/w
  inhibition at 0.04 % strength: 23.1%
[1]; elastase, eriodictyol 0.2 % w/w
  inhibition at 0.2 % strength: 58.1%
TRPV1 receptors
  Neuroinflammation and hypererythema: reduces neuroinflammation and relieves hypererythema
[2]; TFPI2
  Treatment (gene expression level): 34.1
[2]; TFPI2, treatment vs control
  Fold Change: −17.1
[3]; ALDH1A3
  Treatment (gene expression level): 168.0
[3]; ALDH1A3, treatment vs control
  Fold Change: −9.8
[4]; PPFIA4
  Treatment (gene expression level): 628.6
[4]; PPFIA4, treatment vs control
  Fold Change: 27.9
[5]; KCTD4
  Treatment (gene expression level): 36.4
[5]; KCTD4, treatment vs control
  Fold Change: −14.9
IL6 (Interleukin 6); IL6
  Treatment (gene expression level): 1.2
IL6 (Interleukin 6); IL6, treatment vs control
  Fold Change: −19.7
THBS1 (thrombospondin 1); THBS1
  Treatment (gene expression level): 344.3
THBS1 (thrombospondin 1); THBS1, treatment vs control
  Fold Change: −16.0
FST (follistatin)
  Treatment (gene expression level): 96.4
FST (follistatin); treatment vs control
  Fold Change: −9.8
[6]; SLC13A5
  Treatment (gene expression level): 5.9
[6]; SLC13A5, treatment vs control
  Fold Change: −13.9
IL24 (Interleukin 24); IL24
  Treatment (gene expression level): 1.2
IL24 (Interleukin 24); IL24, treatment vs control
  Fold Change: −73.5
[7]; MMP3
  Treatment (gene expression level): 8.2
[7]; MMP3, treatment vs control
  Fold Change: −48.5
FN1 (fibronectin 1); FN1
  Treatment (gene expression level): 146.9
FN1 (fibronectin 1); FN1, treatment vs control
  Fold Change: −12.1
[8]
  Treatment (gene expression level): 76.4
[8]; treatment vs control
  Fold Change: −11.3
[9]; MMP10
  Treatment (gene expression level): 106.9
[9]; MMP10, treatment vs control
  Fold Change: −24.3
[10]; MKI67
  Treatment (gene expression level): 78.7
[10]; MKI67, treatment vs control
  Fold Change: −10.6
[11]; MMP9
  Treatment (gene expression level): 527.6
[11]; MMP9, treatment vs control
  Fold Change: −8.6
[12]; MMP1
  Treatment (gene expression level): 972.9
[12]; MMP1, treatment vs control
  Fold Change: −11.3
[13]
  Treatment (gene expression level): 0.0
[13]; treatment vs control
  Fold Change: −256.0
IL23A (Interleukin 23)
  Treatment (gene expression level): 5.9
IL23A (Interleukin 23); treatment vs control
  Fold Change: −6.1
[14]
  Treatment (gene expression level): 37.6
[14]; treatment vs control
  Fold Change: −18.4
ICR mice
  Symptoms of atopic dermatitis: alleviating symptoms of atopic dermatitis
[15]
  Lowest concentration inhibiting glycation: 0.002 % w/w
[15]; calculated
  IC50 glycation inhibition: 0.0088 % w/w
[15]; eriodictyol 0.002 % w/w
  % Enzyme Inhibition: 38.43%
[15]; eriodictyol 0.007 % w/w
  % Enzyme Inhibition: 86.18%
[15]; eriodictyol 0.022 % w/w
  % Enzyme Inhibition: 90.26%
Macrophage cells
  Anti-inflammatory activity: inflammatory markers: decrease inflammatory markers
[16]; eriodictyol 0.00007 % w/w
  % Radical Inhibition: 21.22%
[16]; eriodictyol 0.00046 % w/w
  % Radical Inhibition: 81.45%
[16]; eriodictyol 0.00278 % w/w
  % Radical Inhibition: 81.95%
[16]; organic solvent system, calculated
  IC50 antioxidant activity: 0.0002 % w/w
[16]; organic solvent systems
  Lowest concentration demonstrating antioxidant activity: 0.00007 % w/w
[17]; in Caprylic/Capric Triglyceride
  Solubility (% w/w): only minimally soluble; also recorded: Not soluble
[17]; in Helianthus Annuus (Sunflower) Seed Oil
  Solubility (% w/w): insoluble; also recorded: Not soluble
[17]; in Pentylene Glycol
  Solubility (% w/w): only minimally soluble; also recorded: Not soluble
[17]; in oil
  Solubility: poorly soluble or insoluble
[17]; in water
  Solubility: poorly soluble or insoluble
Keratinocytes
  Protection from UVA-induced photodamage and apoptosis: protecting skin from UVA-induced photodamage and apoptosis
Melanoma cells
  Melanogenesis: decreases melanogenesis
tyrosinase
  Tyrosinase inhibition: inhibiting tyrosinase
Nrf2/HO-1 pathway
  Cognitive decline: decreases cognitive decline
[18]; eriodictyol 0.00016 % w/w
  % Radical Inhibition: 11.00%
[18]; eriodictyol 0.0008 % w/w
  % Radical Inhibition: 58.72%
[18]; eriodictyol 0.004 % w/w
  % Radical Inhibition: 92.97%
[18]; aqueous solvent system, calculated
  IC50 antioxidant activity: 0.00062 % w/w
[18]; aqueous systems
  Lowest concentration demonstrating antioxidant activity: 0.00016 % w/w
[19]; 4 C.
  30 day % remaining: 104.66%
  90 day % remaining: 97.15%
[19]; 25 C.
  30 day % remaining: 100.78%
  90 day % remaining: 91.72%
  180 day % remaining: 90.30%
[19]; 40 C.
  30 day % remaining: 93.53%
  90 day % remaining: 98.06%
[19]; 50 C.
  30 day % remaining: 95.73%
